In US20160168195A1, “OLIGOPEPTIDES AND PROCESS FOR PREPARATION THEREOF” (Council of Scientific & Industrial Research, priority 2011, published 2016):

How the values were obtained:
[1] = system: human cervical cancer cell line (HeLa); assay: Determination of IC50 in cancer cell lines (cell counting, trypan blue), HeLa; type: cell-based; settings: 24 h with compound (1-40 nM), inhibition of cell proliferation, read-out: IC50 against He La cells
Description: (§1) Then the medium was replaced with fresh medium containing vehicle (0.1% DMSO) or different concentrations of compounds (1-40 nM) and the cells were grown for an additional 24 h. Both attached and floating cells were harvested and counted after staining with trypan blue (Rathinasamy et al, BMC Cancer 2010; 10:213). Percentage inhibition of cell proliferation was plotted against compound concentration using Origin Pro 7.5 software (Table 2).

[2] = system: MDA-MB-231 cells; assay: Determination of IC50 in cancer cell lines (cell counting, trypan blue), MDA-MB-231; type: cell-based, human; settings: MDA-MB-231 (highly metastatic breast cancer)
Description: as §1

[3] = system: HeLa cells; assay: Apoptosis by annexin V and propidium iodide staining; type: cell-based, human; settings: HeLa, 7, 15, 30 nM, 24 h
Description: (§2) After 40 h of incubation, cells were trypsinized and collected by centrifugation. After washing pellet twice in PBS, the cells were lysed in buffer (50 mM Tris pH 8.0, 10 mM EDTA, 0.5% sarcosine, and 0.5 mg/mL proteinase K), and incubated at 50° C. for 1 h in the heating block. RNase A (1 mg/mL) was added and incubation was further extended for 1 h. The samples were allowed to come to 25° C. Gel electrophoresis was done using 2% agarose and the fragmented genomic DNA visualized after staining with ethidium bromide using UV gel documentation system (FIG. 2) (Rathinasamy et al, FEBS J 2006; 273:4114). HeLa cells were incubated with different concentrations of compound 5 (7, 15 and 30 nM) for 24 h. Cells were stained with annexin V and propidium iodide. The number of cells undergoing apoptosis was estimated by counting the annexin V and propidium iodide positive cells (FIG. 13).

[4] = system: microtubules of HeLa cells; assay: Effect on interphase and mitotic microtubules of HeLa cells (immunostaining); type: cell-based, human
Description: Effect of Compound 5 on interphase and mitotic microtubules of HeLa cells: HeLa cells were seeded at a density of 0.6×10^5 cells/mL and were grown as monolayer on glass cover slips. Compounds diluted in Dimethyl sulfoxide (DMSO) (0.1% final concentration) were added to the culture medium 24 h after seeding. Then, the medium was replaced with fresh medium containing vehicle (0.1% DMSO) or different concentrations (7, 15, 30 nM) of compound 5 and the incubation continued for further 24 h. The cells were then fixed with 3.7% formaldehyde at 37° C. for 30 min and immunostained using tubulin antibody (FIGS. 4 and 5) (Mohan R and Panda D, Cancer Res. 2008, 68: 6181). The DNA was stained using Hoechst 33258 dye. The images were visualized by TE Eclipse 2000U fluorescence microscope (Nikon, Tokyo, Japan) and analyzed with Image-Pro Plus software.

[5] = system: MCF-7 cells; assay: Determination of IC50 in cancer cell lines (cell counting, trypan blue), MCF-7; type: cell-based, human; settings: MCF-7 (breast cancer)
Description: as §1

[6] = system: Goat brain tubulin; assay: Microtubule polymerization assay (light scattering); type: biochemical; settings: tubulin 10 μM, 30 min, compared with compounds 1, 2, 3
Description: Microtubule polymerization assay: Goat brain tubulin (10 μM) was incubated without or with different compounds 1, 2, 3 and compound 5 (5 μM) in microtubule assembly buffer (1 M monosodium glutamate, 3 mM MgCl2, 1 mM EGTA and 25 mM PIPES pH 6.8) on ice for 20 minutes. Then, GTP (1 mM) was added to the reaction mixture. The assembly of tubulin was monitored at 37° C. using a spectrofluorometer for 30 min. Similar experiment was done with compound 5 (1, 5, 7 and 10 μM). MAPs-rich tubulin (1 mg/mL) was incubated without or with different concentrations of compound 5 (1, 3, 5 and 10 μM) in PEM buffer (25 mM pipes pH 6.8 containing 3 mM MgCl2 and 1mM EGTA) for 15 min on ice and then, 1 mM GTP was added to the reaction mixture. The effect of D1, D2, D3 and D5 on the assembly kinetics was monitored as described above for purified tubulin (FIG. 3) (Gupta and Panda, Biochemistry 2002; 41:13029) to study depolymerization of microtubules which is a mechanism of anticancer activity.

[7] = system: HeLa cells; assay: Apoptosis detection by DNA fragmentation assay; type: cell-based, human; settings: HeLa, 7, 15, 30 nM, 40 h
Description: as §2

[8] = system: solid tumors and soft tissue sarcomas; settings: cited from earlier work
[9] = in vivo; cited from earlier work

Molecule: CC[C@H](C)C(/C=C/C(=O)NCC1O[C@@H](C(=O)N[C@@H](Cc2ccccc2)C2=NCCS2)[C@@H](OC)[C@@H]1OC)N(C)C(=O)[C@@H](NC(=O)[C@@H](NC)C(C)C)C(C)C (stereo partly drawn) [Compound 1, Dov(R^1═H)-Val-(4S,5S)-Dil(X,Y═CH)-SAA(2R)-Doe(R^2=2-(4,5-dihydrothiazolyl), n=1)]
- IC50 [1]: 8.7 nM

Molecule: CC[C@H](C)C(/C=C/C(=O)NCC1O[C@@H](C(=O)N[C@@H](Cc2ccccc2)C2=NCCS2)[C@@H](OC)[C@@H]1OC)N(C)C(=O)[C@@H](NC(=O)[C@H](C(C)C)N(C)C)C(C)C (stereo partly drawn) [Compound 2, Dov(R^1=Me)-Val-(4S,5S)-Dil(X,Y═CH)-SAA(2R)-Doe(R^2=2-(4,5-dihydrothiazolyl), n=1)]
- IC50 [1]: 8.8 nM

Molecule: CC[C@H](C)C([C@H](CC(=O)NCC1O[C@H](C(=O)N[C@@H](Cc2ccccc2)c2nccs2)[C@@H](OC)[C@@H]1OC)OC)N(C)C(=O)[C@@H](NC(=O)[C@@H](NC)C(C)C)C(C)C (stereo partly drawn) [Compound 3, Dov(R^1═H)-Val-(3S,4S,5S)-Dil(X═C(OCH3)H,Y═CH2)-SAA(2S)-Doe(R^2=2-(thiazolyl), n=1)]
- IC50 [1]: 9.9 nM

Molecule: CC[C@H](C)C([C@H](CC(=O)NCC1O[C@H](C(=O)N[C@@H](Cc2ccccc2)c2nccs2)[C@@H](OC)[C@@H]1OC)OC)N(C)C(=O)[C@@H](NC(=O)[C@H](C(C)C)N(C)C)C(C)C (stereo partly drawn) [Compound 4, Dov(R^1=Me)-Val-(3S,4S,5S)-Dil(X═C(OCH3)H,Y═CH2)-SAA(2S)-Doe(R^2=2-(thiazolyl), n=1)]
- IC50 [1]: 16 nM

Molecule: CC[C@H](C)C([C@@H](CC(=O)NCC1O[C@H](C(=O)NCCc2ccccc2)[C@@H](OC)[C@@H]1OC)OC)N(C)C(=O)[C@@H](NC(=O)[C@@H](NC)C(C)C)C(C)C (stereo partly drawn) [Compound 5, Dov(R^1═H)-Val-(3R,4S,5S)-Dil(X═C(OCH3)H,Y═CH2)-SAA(2S)-Doe(R^2═H, n=1)]
- inhibition of proliferation of MDA-MB-231 cells (in words) [2]: inhibited proliferation
- IC50 ([2]; 24 h, read-out: IC50 values for compound 5, MDA-MB-231 cells): 13 ± 5 nM
- induction of apoptosis (Annexin V and PI staining, in words) [3]: induced apoptosis
- effect on interphase microtubules of HeLa cells (in words) ([4]; 7, 15, 30 nM, 24 h): perturbed microtubule network
- effect on mitotic microtubules of HeLa cells (in words) ([4]; 7, 15, 30 nM, 24 h): perturbed microtubule network
- depolymerization of interphase and mitotic microtubules (in words) ([4]; at 15 to 30 nM): showed depolymerization of interphase and mitotic microtubules
- IC50 [1]: 6.8 nM
- inhibition of proliferation of MCF-7 cells (in words) [5]: inhibited proliferation
- IC50 ([5]; 24 h, read-out: IC50 values for compound 5, MCF-7 cells): 15 ± 7 nM
- effect on assembly of purified tubulin, relative potency (in words) [6]: maximum potency
- genomic DNA fragmentation (in words) [7]: DNA fragmentation
- genomic DNA fragmentation (in words) ([7]; listed as D5): caused genomic DNA fragmentation

Molecule: CC[C@H](C)C([C@@H](CC(=O)NCC1O[C@@H](C(=O)NCCc2ccccc2)[C@@H](OC)[C@@H]1OC)OC)N(C)C(=O)[C@@H](NC(=O)[C@@H](NC)C(C)C)C(C)C (stereo partly drawn) [Compound 6, Dov(R^1═H)-Val-(3R,4S,5S)-Dil(X═C(OCH3)H,Y═CH2)-SAA(2R)-Doe(R^2═H, n=1)]
- IC50 [1]: 15 nM

Molecule: CC[C@H](C)C([C@H](O)CC(=O)NCC1O[C@@H](C(=O)NCc2ccccc2)[C@@H](OC)[C@@H]1OC)N(C)C(=O)[C@@H](NC(=O)[C@@H](NC)C(C)C)C(C)C (stereo partly drawn) [Compound 7, Dov(R^1═H)-Val-(3R,4S,5S)-Dil(X═C(OH)H,Y═CH2)-SAA(2R)-Doe(R^2═H, n=0)]
- IC50 [1]: 16 nM

Molecule: CC[C@H](C)C([C@H](O)CC(=O)NCC1O[C@H](C(=O)NCc2ccccc2)[C@@H](OC)[C@@H]1OC)N(C)C(=O)[C@@H](NC(=O)[C@@H](NC)C(C)C)C(C)C (stereo partly drawn) [Compound 8, Dov(R^1═H)-Val-(3R,4S,5S)-Dil(X═C(OH)H,Y═CH2)-SAA(2S)-Doe(R^2═H, n=0)]
- IC50 [1]: 12 nM

Molecule: Dolastatin-10
- responses in phase I and II clinical trials (in words) ([8]; variety of solid tumors and soft tissue sarcomas, Von Mehren et al 2004): did not demonstrate any responses

Molecule: Dolastatin-15
- side effects (in words) [9]: severe side effects such as arterial hypertension and myocardial infarction

Molecule: TZT-1027
- activity in Phase II trials (in words) ([8]; Phase II, Patel et al 2006): no activity
